Among the test systems are 786-0; A549; BT-549; COLO 205; EKVX; HOP-92; HT-29; K562; MCF7; MDA-MB-231; MOLT-4; Malme-3M; NCI-H23; RPMI-8226; SK-MEL-28; SNB-19; U-251; UACC-62; UO-31; SR.
Common to all, as to assay: DTP human tumour cell line panel, 48 h

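Each compound was tested at five concentrations against cells in 96-well plates for 48 hours. The concentration for 50% growth inhibition is given as GI50.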 The source made the active and inactive calls. Rule as the data show it: active = GI50 up to about 1.1 µM and inactive = higher.

One may read the GI50 as the concentration at which growth is held to half of that of the control. Take `O=C(c1cc(Br)ccc1O)c1cc(Br)ccc1O`: the GI50 is 16.9 µM (inactive) with 786-0; 17.5 µM (inactive) in the experiment with A549; 17.8 µM (inactive) with BT-549; 17.4 µM (inactive) with COLO 205; 15.6 µM (inactive) in the experiment with EKVX; 13.6 µM (inactive) with HOP-92. Further, the GI50 with HT-29 is 17.7 µM (inactive); in the experiment on K562, 15.3 µM (inactive); in the experiment with MCF7 it was 16.8 µM (inactive); in the experiment with MDA-MB-231, 17.2 µM (inactive); with MOLT-4, 18.4 µM (inactive); in the experiment on Malme-3M it was 17.3 µM (inactive). For the same molecule, the GI50 is 17.1 µM (inactive) in the experiment on NCI-H23; 11.3 µM (inactive) with RPMI-8226; 16.8 µM (inactive) in the experiment with SK-MEL-28; 17.2 µM (inactive) in the experiment on SNB-19; 15.5 µM (inactive) in the experiment with U-251; 13.1 µM (inactive) with UACC-62. Besides, the GI50 in the experiment on UO-31 was 14.3 µM (inactive).

With `Cc1c(C(=O)OCc2ccccc2)[n+]([O-])c2cc(Cl)c(Cl)cc2[n+]1[O-]`, the GI50 with 786-0 is 16 µM (inactive); in the experiment with A549, 11.1 µM (inactive); in the experiment on BT-549 it was 20.4 µM (inactive); in the experiment with COLO 205, 18.2 µM (inactive); with EKVX, 13.9 µM (inactive); in the experiment on HOP-92, 6.27 µM (inactive). Also, the GI50 in the experiment on HT-29 is 17.1 µM (inactive); with K562 it was 23.6 µM (inactive); with MCF7, 19.5 µM (inactive); with MDA-MB-231, 19.5 µM (inactive); in the experiment with MOLT-4 it was 3.28 µM (inactive); with NCI-H23 it was 18.5 µM (inactive). The GI50 with RPMI-8226 is 6.46 µM (inactive); in the experiment with SK-MEL-28, 25.1 µM (inactive); in the experiment with SNB-19 it was 27 µM (inactive); in the experiment with SR, 5.37 µM (inactive); in the experiment on U-251, 24.6 µM (inactive); in the experiment on UACC-62 it was 14.9 µM (inactive). Besides, the GI50 with UO-31 is 16.4 µM (inactive).

Take `CCn1c(SCC(=O)NNC(=S)Nc2ccc(F)cc2)nc2ccccc2c1=O`: the GI50 with 786-0, in the experiment on A549, in the experiment with BT-549, in the experiment with COLO 205, in the experiment with EKVX and with HT-29 was > 100 µM (inactive) each time. Besides, the GI50 in the experiment with K562 is 74.5 µM (inactive); with MCF7, > 100 µM (inactive); in the experiment on MDA-MB-231, > 100 µM (inactive); in the experiment with MOLT-4 it was 44.4 µM (inactive); in the experiment with Malme-3M, > 100 µM (inactive); in the experiment with NCI-H23, > 100 µM (inactive). In addition, the GI50 was 63.5 µM (inactive) in the experiment with RPMI-8226; > 100 µM (inactive) in the experiment with SK-MEL-28; > 100 µM (inactive) with SNB-19; 49.4 µM (inactive) in the experiment with SR; > 100 µM (inactive) with U-251; 58.7 µM (inactive) in the experiment on UACC-62. Further, the GI50 with UO-31 was 17.9 µM (inactive).

Consider `O=C1c2cc(Cl)ccc2N=C(NCCCl)C2CSCN12` (centres undefined), for which the GI50 in the experiment on 786-0, in the experiment with A549, in the experiment on BT-549, in the experiment on COLO 205, in the experiment on EKVX and in the experiment with HT-29 was > 100 µM (inactive) each time. The GI50 in the experiment on K562 was 70.1 µM (inactive); in the experiment on MCF7, > 100 µM (inactive); in the experiment on MDA-MB-231, > 100 µM (inactive); with MOLT-4, > 100 µM (inactive); in the experiment with Malme-3M, > 100 µM (inactive); with RPMI-8226, > 100 µM (inactive). Besides, the GI50 in the experiment on SK-MEL-28 was > 100 µM (inactive); in the experiment with SNB-19, > 100 µM (inactive); in the experiment on SR it was 52.8 µM (inactive); in the experiment with U-251, > 100 µM (inactive); with UACC-62 it was > 100 µM (inactive); in the experiment with UO-31, > 100 µM (inactive).

For `COC(=O)C1=C(OC(=O)/C(=C/c2ccccc2)c2ccccc2)C(C(=O)OC)[C@@]2(O)[C@@H](C(=O)OC)[C@H](C)C[C@@H]1[C@@H]2C(=O)OC` (some centres undefined), the GI50 in the experiment on 786-0, in the experiment on A549, with BT-549, with COLO 205, in the experiment on EKVX and in the experiment with HT-29 was > 100 µM (inactive) throughout. Also, the GI50 is 6.11 µM (inactive) with K562; > 100 µM (inactive) in the experiment on MCF7; > 100 µM (inactive) with MDA-MB-231; > 100 µM (inactive) with Malme-3M; > 100 µM (inactive) in the experiment on NCI-H23; 2.67 µM (inactive) in the experiment on RPMI-8226. For the same molecule, the GI50 in the experiment with SK-MEL-28, with SNB-19, with SR, in the experiment with U-251, in the experiment with UACC-62 and in the experiment with UO-31 was > 100 µM (inactive) throughout.

Consider `O=C(NCCCCN(CCCNC(=O)C(F)(F)F)Cc1ccc2ccccc2c1)C(F)(F)F`, for which the GI50 was 15.6 µM (inactive) with 786-0; 30.4 µM (inactive) in the experiment with A549; 17.1 µM (inactive) in the experiment with BT-549; 14.9 µM (inactive) in the experiment on COLO 205; 16.4 µM (inactive) in the experiment on EKVX; 16.7 µM (inactive) in the experiment with HOP-92. The GI50 in the experiment with HT-29 was 13.7 µM (inactive); in the experiment on K562, 16.7 µM (inactive); in the experiment on MCF7, 14.7 µM (inactive); in the experiment on MDA-MB-231 it was 16.7 µM (inactive); with MOLT-4 it was 24.2 µM (inactive); with Malme-3M, 15.3 µM (inactive). Moreover, the GI50 was 20.1 µM (inactive) with NCI-H23; > 10 µM (inactive) in the experiment with RPMI-8226; 16.7 µM (inactive) in the experiment on SK-MEL-28; 14 µM (inactive) in the experiment on SNB-19; 26.4 µM (inactive) in the experiment with U-251; 19.1 µM (inactive) with UACC-62. Besides, the GI50 in the experiment on UO-31 was 8.04 µM (inactive).

Turning to `CC(NNC(=O)CC(=O)N(C(=O)c1ccccc1)c1ccc(Cl)cc1)c1cc2ccccc2oc1=O` (centres undefined), the GI50 with 786-0, with A549, in the experiment with BT-549, with COLO 205, with EKVX and with HOP-92 was > 10 µM (inactive) in each case. Also, the GI50 in the experiment with HT-29, in the experiment with K562, in the experiment with MCF7, with MDA-MB-231, with MOLT-4 and with Malme-3M was > 10 µM (inactive) throughout. Moreover, the GI50 in the experiment on NCI-H23, in the experiment on RPMI-8226, in the experiment with SK-MEL-28, with SNB-19, with U-251 and in the experiment on UACC-62 was > 10 µM (inactive) in each case. Further, the concentration for 50% growth inhibition (GI50) with UO-31 was 0.0995 µM (active).

With `CCCCCCC1OC23OC1CCC2C(O)CCC3O` (centres undefined), the GI50 in the experiment on 786-0, in the experiment with BT-549, in the experiment with COLO 205, with EKVX, with HT-29 and with K562 was > 100 µM (inactive) each time. Moreover, the GI50 with MCF7, in the experiment with MDA-MB-231, in the experiment with MOLT-4, with Malme-3M, with NCI-H23 and with RPMI-8226 was > 100 µM (inactive) throughout. The GI50 with SK-MEL-28, in the experiment on SNB-19, in the experiment on SR, in the experiment with U-251, in the experiment with UACC-62 and in the experiment with UO-31 was > 100 µM (inactive) in each case.

Turning to `O=C(N/N=C/c1ccc(Br)cc1)N/N=C/c1ccc(Br)cc1`, the GI50 in the experiment on 786-0 is 3.92 µM (inactive); with A549 it was 16 µM (inactive); with BT-549, 20.9 µM (inactive); in the experiment with COLO 205 it was 9.44 µM (inactive); in the experiment with EKVX, 10.3 µM (inactive); in the experiment with HT-29, 11.4 µM (inactive). In addition, the GI50 in the experiment on K562 was 16.6 µM (inactive); in the experiment with MCF7 it was 11.3 µM (inactive); with MDA-MB-231, 3.38 µM (inactive); with MOLT-4, 4.42 µM (inactive); in the experiment with Malme-3M, 3.05 µM (inactive); with NCI-H23, 22.9 µM (inactive). For the same molecule, the GI50 was 10.6 µM (inactive) with RPMI-8226; 12 µM (inactive) in the experiment with SK-MEL-28; 4.42 µM (inactive) in the experiment with SNB-19; 4.33 µM (inactive) in the experiment with SR; 6.24 µM (inactive) in the experiment with U-251; 12.6 µM (inactive) in the experiment with UACC-62. Also, in the experiment on UO-31, the GI50 was 10.9 µM (inactive).

Take `CCN(CC(COc1ccc2c(c1)[n+]([O-])nc(N)[n+]2[O-])OC(C)=O)C(C)=O` (centres undefined): the GI50 in the experiment with 786-0 was 93.1 µM (inactive); in the experiment with A549 it was 68.2 µM (inactive); in the experiment on BT-549, > 100 µM (inactive); in the experiment on COLO 205, 32.2 µM (inactive); in the experiment with EKVX, 52.2 µM (inactive); with HT-29, > 100 µM (inactive). The GI50 in the experiment with K562 is 14.1 µM (inactive); in the experiment on MCF7 it was > 100 µM (inactive); in the experiment on MDA-MB-231 it was > 100 µM (inactive); in the experiment with MOLT-4, 20.8 µM (inactive); with NCI-H23, 49.5 µM (inactive); in the experiment with RPMI-8226, > 100 µM (inactive). The GI50 in the experiment on SK-MEL-28 was > 100 µM (inactive); in the experiment with SNB-19, > 100 µM (inactive); in the experiment on SR, > 100 µM (inactive); in the experiment on U-251, > 100 µM (inactive); in the experiment on UACC-62, 29.6 µM (inactive); in the experiment with UO-31, 72.3 µM (inactive).

`Cc1nc2cccc([N+](=O)[O-])c2n1CCCN(C)C`: the GI50 in the experiment with 786-0, with A549, with BT-549, in the experiment on COLO 205, with EKVX and in the experiment with HT-29 was > 100 µM (inactive) in each case. Besides, the GI50 in the experiment with K562, with MCF7, in the experiment on MDA-MB-231, in the experiment on Malme-3M, in the experiment on NCI-H23 and with RPMI-8226 was > 100 µM (inactive) each time. The GI50 with SK-MEL-28 is > 100 µM (inactive); in the experiment on SNB-19, > 100 µM (inactive); in the experiment with SR, > 100 µM (inactive); in the experiment with U-251, > 100 µM (inactive); in the experiment with UACC-62, > 100 µM (inactive); in the experiment on UO-31 it was 16.8 µM (inactive).
